Laboratory results as given in ChEMBL document CHEMBL1156713, “NSAIDs revisited: putative molecular basis of their interactions with peroxisome proliferator-activated gamma receptor (PPARgamma)” (Eur J Med Chem, 2008).

What was measured:
[1] = biological target: T1, Peroxisome proliferator-activated receptor gamma (Homo sapiens) (UniProt P37231); assay: Activity at PPARgamma in human Caco-2 cells assessed as luciferase activity at 400 uM relative to control; type: cell-based
T1 sequence (whole entry): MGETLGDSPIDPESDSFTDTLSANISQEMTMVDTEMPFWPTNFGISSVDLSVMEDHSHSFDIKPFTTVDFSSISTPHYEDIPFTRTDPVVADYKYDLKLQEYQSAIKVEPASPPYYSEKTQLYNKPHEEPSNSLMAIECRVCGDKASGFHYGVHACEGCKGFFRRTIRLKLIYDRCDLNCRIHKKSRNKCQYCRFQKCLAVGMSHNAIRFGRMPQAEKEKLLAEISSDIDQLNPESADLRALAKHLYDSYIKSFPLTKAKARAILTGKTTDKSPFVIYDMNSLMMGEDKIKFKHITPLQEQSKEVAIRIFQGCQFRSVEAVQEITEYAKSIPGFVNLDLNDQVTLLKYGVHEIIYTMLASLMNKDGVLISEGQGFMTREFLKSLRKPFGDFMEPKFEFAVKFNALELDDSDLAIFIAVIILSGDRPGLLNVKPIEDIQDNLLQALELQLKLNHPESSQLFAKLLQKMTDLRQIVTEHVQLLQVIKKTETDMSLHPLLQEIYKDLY

[2] = biological target: T1, Peroxisome proliferator-activated receptor gamma (Homo sapiens); assay: Activity at PPARgamma in human Caco-2 cells assessed as luciferase activity at 1000 uM relative to control; type: cell-based
[3] = Ratio of IC50 for COX1 to IC50 for COX2
[4] = biological target: T1, Peroxisome proliferator-activated receptor gamma (Homo sapiens); assay: Activity at PPARgamma in human Caco-2 cells assessed as luciferase activity at 50 uM relative to control; type: cell-based
[5] = biological target: T1, Peroxisome proliferator-activated receptor gamma (Homo sapiens); assay: Activity at PPARgamma in human Caco-2 cells assessed as luciferase activity at 10000 uM relative to control; type: cell-based
[6] = biological target: T1, Peroxisome proliferator-activated receptor gamma (Homo sapiens); assay: Activity at PPARgamma in human Caco-2 cells assessed as luciferase activity at 100 uM relative to control; type: cell-based

Work on `CC1=C(CC(=O)O)c2cc(F)ccc2/C1=C\c1ccc(S(C)(=O)=O)cc1` yielded a fold change (FC) [1] of 3.33.
Work on `CN1C(C(=O)Nc2ccccn2)=C(O)c2ccccc2S1(=O)=O` yielded a fold change (FC) [2] of 1.92.
`CC(C)Cc1ccc(C(C)C(=O)O)cc1` (configuration not stated) showed a fold change (FC) [2] of 5.81.
`CSc1ccc(/C=C2/C(C)=C(CC(=O)O)c3cc(F)ccc32)cc1` showed a Ratio IC50 [3] of 0.258.
With `COc1ccc2c(c1)c(CC(=O)O)c(C)n2C(=O)c1ccc(Cl)cc1` the fold change (FC) [4] was 6.43.
Work on `CC(=O)Oc1ccccc1C(=O)O` yielded a fold change (FC) [5] of 4.02.
In the case of `CC1=C(CC(=O)O)c2cc(F)ccc2/C1=C\c1ccc([S+](C)[O-])cc1` (configuration not stated), the fold change (FC) [6] is reported as 2.51.
